The record followed here is ChEMBL document CHEMBL5291721, “A preclinical secondary pharmacology resource illuminates target-adverse drug reaction associations of marketed drugs” (Nat Commun, 2023).

As a reminder, the AC50 is the concentration giving half of the maximal activity seen.

Assay [1] has as its target T1, Androgen receptor (Homo sapiens, UniProt P10275).
T1 sequence (P10275 whole entry): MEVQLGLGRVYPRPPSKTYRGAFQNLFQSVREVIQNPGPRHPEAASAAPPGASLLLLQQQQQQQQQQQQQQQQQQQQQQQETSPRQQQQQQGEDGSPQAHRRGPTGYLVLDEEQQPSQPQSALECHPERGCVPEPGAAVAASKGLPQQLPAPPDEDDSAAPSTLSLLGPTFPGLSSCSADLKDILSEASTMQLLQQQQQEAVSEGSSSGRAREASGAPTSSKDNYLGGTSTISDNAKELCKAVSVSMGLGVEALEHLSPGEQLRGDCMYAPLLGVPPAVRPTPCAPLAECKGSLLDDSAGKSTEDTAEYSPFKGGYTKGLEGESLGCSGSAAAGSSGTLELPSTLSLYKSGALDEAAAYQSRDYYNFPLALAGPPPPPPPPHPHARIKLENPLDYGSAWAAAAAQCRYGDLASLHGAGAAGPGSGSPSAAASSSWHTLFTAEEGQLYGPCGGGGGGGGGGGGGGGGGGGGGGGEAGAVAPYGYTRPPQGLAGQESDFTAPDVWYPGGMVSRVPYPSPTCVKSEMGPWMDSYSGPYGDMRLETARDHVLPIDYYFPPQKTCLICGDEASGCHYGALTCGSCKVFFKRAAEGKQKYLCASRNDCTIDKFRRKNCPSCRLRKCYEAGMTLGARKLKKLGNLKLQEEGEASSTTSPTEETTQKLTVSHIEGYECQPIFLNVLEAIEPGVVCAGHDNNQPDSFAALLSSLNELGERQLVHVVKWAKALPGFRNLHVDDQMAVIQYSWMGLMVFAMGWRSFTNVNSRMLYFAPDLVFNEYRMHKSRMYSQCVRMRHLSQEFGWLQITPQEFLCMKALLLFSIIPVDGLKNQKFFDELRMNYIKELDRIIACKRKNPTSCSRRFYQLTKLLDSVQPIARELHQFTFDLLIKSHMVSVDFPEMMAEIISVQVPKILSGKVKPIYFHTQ

Assay [2] has as its target T2, Muscarinic acetylcholine receptor M1 (Homo sapiens, UniProt P11229).
T2 sequence (P11229 whole entry): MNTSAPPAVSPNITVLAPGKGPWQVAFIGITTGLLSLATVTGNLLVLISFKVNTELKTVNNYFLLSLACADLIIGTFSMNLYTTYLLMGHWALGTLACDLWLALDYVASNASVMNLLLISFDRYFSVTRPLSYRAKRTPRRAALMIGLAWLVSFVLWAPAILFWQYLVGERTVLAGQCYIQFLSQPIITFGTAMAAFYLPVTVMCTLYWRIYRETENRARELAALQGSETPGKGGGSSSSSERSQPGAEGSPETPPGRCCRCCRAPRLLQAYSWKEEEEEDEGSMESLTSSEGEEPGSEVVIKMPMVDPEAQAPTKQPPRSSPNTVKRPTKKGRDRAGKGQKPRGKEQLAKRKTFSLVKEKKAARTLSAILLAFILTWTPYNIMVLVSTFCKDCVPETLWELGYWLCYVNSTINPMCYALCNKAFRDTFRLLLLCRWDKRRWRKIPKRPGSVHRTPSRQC
The class given is functional, cell-based.

Assay [3] has as its target T2, Muscarinic acetylcholine receptor M1. The class given is functional, cell-based. This is another data set of the same source.
Assay [4] addresses Adenosine receptor A2a (Homo sapiens, UniProt P29274).
The target in assay [5] is T3, Alpha-2C adrenergic receptor (Homo sapiens, UniProt P18825).
T3 sequence (P18825 whole entry): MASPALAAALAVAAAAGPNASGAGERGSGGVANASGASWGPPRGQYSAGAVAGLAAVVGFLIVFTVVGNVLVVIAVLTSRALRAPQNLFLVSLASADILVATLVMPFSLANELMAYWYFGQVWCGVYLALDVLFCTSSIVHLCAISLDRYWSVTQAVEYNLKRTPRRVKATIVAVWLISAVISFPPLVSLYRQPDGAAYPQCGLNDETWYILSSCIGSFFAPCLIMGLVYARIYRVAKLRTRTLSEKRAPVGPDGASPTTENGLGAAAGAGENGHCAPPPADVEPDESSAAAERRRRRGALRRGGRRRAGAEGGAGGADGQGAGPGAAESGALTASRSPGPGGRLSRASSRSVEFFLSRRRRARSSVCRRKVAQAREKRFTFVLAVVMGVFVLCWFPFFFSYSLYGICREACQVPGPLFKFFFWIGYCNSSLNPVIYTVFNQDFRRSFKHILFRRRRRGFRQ
In kind it is functional.

In assay [6] the target is T4, 5-hydroxytryptamine receptor 2C (Homo sapiens, UniProt P28335).
T4 sequence (P28335 whole entry): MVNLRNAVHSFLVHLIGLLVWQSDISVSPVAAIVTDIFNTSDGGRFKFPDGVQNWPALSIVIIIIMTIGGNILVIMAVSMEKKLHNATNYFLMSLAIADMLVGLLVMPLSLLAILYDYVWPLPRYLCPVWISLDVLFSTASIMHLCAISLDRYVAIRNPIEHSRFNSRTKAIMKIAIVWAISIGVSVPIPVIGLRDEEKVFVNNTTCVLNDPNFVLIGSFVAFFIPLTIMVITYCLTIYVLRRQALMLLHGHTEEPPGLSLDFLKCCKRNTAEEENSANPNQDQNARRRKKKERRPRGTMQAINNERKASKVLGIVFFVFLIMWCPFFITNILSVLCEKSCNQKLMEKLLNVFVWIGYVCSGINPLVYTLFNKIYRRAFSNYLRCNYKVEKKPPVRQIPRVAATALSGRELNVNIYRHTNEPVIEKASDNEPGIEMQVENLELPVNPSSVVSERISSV

Assay [7] deals with Melanocortin receptor 3 (Homo sapiens, UniProt P41968).
Chain of Melanocortin receptor 3 (P41968 whole entry): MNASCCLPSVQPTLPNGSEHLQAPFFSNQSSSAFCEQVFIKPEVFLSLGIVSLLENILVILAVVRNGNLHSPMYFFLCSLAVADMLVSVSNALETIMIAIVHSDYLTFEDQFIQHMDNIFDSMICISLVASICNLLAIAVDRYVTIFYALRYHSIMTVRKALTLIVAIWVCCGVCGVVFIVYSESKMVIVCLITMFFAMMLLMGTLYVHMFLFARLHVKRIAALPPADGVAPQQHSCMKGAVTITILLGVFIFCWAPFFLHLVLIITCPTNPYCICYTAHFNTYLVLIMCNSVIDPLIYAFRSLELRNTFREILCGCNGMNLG
The target in assay [8] is D(3) dopamine receptor (Homo sapiens, UniProt P35462).
Chain of D(3) dopamine receptor (P35462 whole entry): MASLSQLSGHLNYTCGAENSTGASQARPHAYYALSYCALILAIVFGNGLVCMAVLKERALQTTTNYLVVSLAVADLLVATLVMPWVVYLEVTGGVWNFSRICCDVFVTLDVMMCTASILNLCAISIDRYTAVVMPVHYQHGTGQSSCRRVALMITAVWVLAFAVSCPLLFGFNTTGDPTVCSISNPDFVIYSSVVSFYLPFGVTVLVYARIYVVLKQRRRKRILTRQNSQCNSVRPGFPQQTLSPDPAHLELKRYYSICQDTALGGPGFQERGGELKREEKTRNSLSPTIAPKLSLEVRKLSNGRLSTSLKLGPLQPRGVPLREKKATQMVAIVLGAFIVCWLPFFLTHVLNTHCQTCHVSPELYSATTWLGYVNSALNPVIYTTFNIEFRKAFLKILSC
Assay [9] has as its target 5-hydroxytryptamine receptor 2B (Homo sapiens, UniProt P41595). In kind it is functional, cell-based.
Further: assay procedure not described here.

Chain of 5-hydroxytryptamine receptor 2B (P41595 whole entry): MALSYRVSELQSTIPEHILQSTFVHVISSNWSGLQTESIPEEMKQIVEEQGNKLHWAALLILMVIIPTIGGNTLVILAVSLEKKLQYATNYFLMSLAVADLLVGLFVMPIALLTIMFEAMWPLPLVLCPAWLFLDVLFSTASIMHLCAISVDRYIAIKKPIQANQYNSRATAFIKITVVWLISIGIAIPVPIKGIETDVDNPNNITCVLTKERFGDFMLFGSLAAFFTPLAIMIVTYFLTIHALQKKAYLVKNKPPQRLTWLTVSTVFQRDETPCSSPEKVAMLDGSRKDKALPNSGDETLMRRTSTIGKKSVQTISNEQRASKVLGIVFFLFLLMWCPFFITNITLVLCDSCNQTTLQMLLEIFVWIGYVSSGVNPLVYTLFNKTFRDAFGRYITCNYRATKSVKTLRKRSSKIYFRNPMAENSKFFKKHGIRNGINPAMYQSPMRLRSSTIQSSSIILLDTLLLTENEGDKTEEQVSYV
Chain of Adenosine receptor A2a (P29274 whole entry): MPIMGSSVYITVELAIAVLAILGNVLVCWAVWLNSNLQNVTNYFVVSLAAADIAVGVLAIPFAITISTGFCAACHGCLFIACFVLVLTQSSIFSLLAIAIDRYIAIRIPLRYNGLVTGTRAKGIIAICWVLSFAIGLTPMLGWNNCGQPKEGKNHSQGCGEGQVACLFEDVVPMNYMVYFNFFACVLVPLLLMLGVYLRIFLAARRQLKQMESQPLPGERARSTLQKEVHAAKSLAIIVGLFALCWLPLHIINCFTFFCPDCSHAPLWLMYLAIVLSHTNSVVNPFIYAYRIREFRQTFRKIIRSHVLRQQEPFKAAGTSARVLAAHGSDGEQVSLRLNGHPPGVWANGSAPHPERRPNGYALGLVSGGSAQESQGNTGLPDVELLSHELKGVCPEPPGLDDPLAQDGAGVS

For the compound `CCCCCCCC(=O)N[C@H](CN1CCCC1)[C@H](O)c1ccc2c(c1)OCCO2`, in assay [1], the AC50 was over 30 µM.
Regarding `CC(C1=C(CCN(C)C)Cc2ccccc21)c1ccccn1` (stereo not given), the AC50 in assay [2] was over 30 µM; in assay [3], 7.57 µM.
Turning to `CC(=O)OC(C)OC(=O)C(C)c1ccc(-c2ccccc2)c(F)c1` (stereo not given), the AC50 in assay [1], in assay [2] and in [3] was over 30 µM each time.
Regarding `C[C@H](N)C(=O)O` [ALANINE], the concentration at half-maximal activity (AC50) in [1], in assay [2] and in assay [3] was over 30 µM in each case.
With `O=C1c2c(O)cccc2Cc2cccc(O)c21` [ANTHRALIN], the AC50 in assay [2] and in assay [3] was over 30 µM in each case.
On to `CNC(=O)C[C@@H](N)C(=O)N[C@@H](C(=O)N[C@@H]1C(=O)N2[C@@H]1SC(C)(C)[C@@H]2C(=O)O)c1ccc(O)cc1` [ASPOXICILLIN], for which the AC50 in [2] and in assay [3] was over 30 µM each time.
As for `O=C(Nc1nc(-c2cc(Cl)cs2)c(N2CCN(C3CCCCC3)CC2)s1)c1cnc(N2CCC(C(=O)O)CC2)c(Cl)c1` [AVATROMBOPAG], the AC50 was over 10 µM in assay [4]; over 10 µM in assay [5]; over 30 µM in [1]; over 10 µM in assay [6]; over 10 µM in [7]; over 10 µM in [8].
For `C[C@@H](O)[C@H]1C(=O)N2C(C(=O)[O-])=C(SC3Cn4cnc[n+]4C3)[C@H](C)[C@H]12` (stereo not given in full) [BIAPENEM], the half-maximal activity concentration (AC50) in assay [2] and in [3] was over 30 µM throughout.
For the compound `CCCCOc1ccc(CC(=O)NO)cc1` [BUFEXAMAC], the AC50 in [2] and in assay [3] was over 30 µM in each case.
As to `CO/N=C(\C(=O)N[C@@H]1C(=O)N2C(C(=O)[O-])=C(C[n+]3cccc4c3CCC4)CS[C@H]12)c1csc(N)n1` [CEFPIROME], the AC50 in [5], in assay [2], in assay [3], in assay [9], in [6] and in assay [8] was over 30 µM each time.
As to `Nc1ncnc(Nc2ccc(Cl)cc2)n1` [CHLORAZANIL], the half-maximal activity concentration (AC50) in assay [2] and in assay [3] was over 30 µM each time.
For the compound `Oc1c(I)cc(Cl)c2cccnc12` [CLIOQUINOL], the AC50 was over 30 µM in [5]; over 30 µM in assay [1]; over 30 µM in assay [9]; over 10 µM in [6]; over 30 µM in [8].
As for `C[C@@H]1C[C@H]2[C@@H]3C[C@H](F)C4=CC(=O)C=C[C@]4(C)[C@@]3(Cl)[C@@H](O)C[C@]2(C)[C@H]1C(=O)COC(=O)C(C)(C)C` [CLOCORTOLONE PIVALATE], the half-maximal activity concentration (AC50) in [2] and in assay [3] was over 30 µM each time.
Turning to `O=P(O)(O)C(Cl)(Cl)P(=O)(O)O` [CLODRONIC ACID], the AC50 in assay [2] and in assay [3] was over 30 µM throughout.
Consider `C[C@H]1O[C@@H](O[C@H]2[C@@H](O)C[C@H](O[C@H]3[C@@H](O)C[C@H](O[C@H]4CC[C@@]5(C)[C@H](CC[C@@H]6[C@@H]5CC[C@]5(C)[C@@H](C7=CC(=O)OC7)CC[C@]65O)C4)O[C@@H]3C)O[C@@H]2C)C[C@H](O)[C@@H]1O` [DIGITOXIN], for which the concentration at half-maximal activity (AC50) in assay [1] is over 30 µM.
On the same count and under the same terms, the figure for `OC(CCCN1CCCCC1)(c1ccccc1)c1ccccc1` [DIPHENIDOL] is over 30 µM.
For `CCOC(=O)c1ccc(OC(=O)CCCCCNC(=N)N)cc1` [GABEXATE], the AC50 in [2] and in assay [3] was over 30 µM each time.
For the compound `CCCCC/C=C\C/C=C\C/C=C\CCCCC(=O)O` [GAMOLENIC ACID], the AC50 in [2] and in assay [3] was over 30 µM each time.
Regarding `CC(N)CCCC(C)(C)O` (stereo not given) [HEPTAMINOL], the half-maximal activity concentration (AC50) in [2] and in assay [3] was over 30 µM each time.
Turning to `O=[N+]([O-])O[C@H]1CO[C@H]2[C@@H]1OC[C@H]2O[N+](=O)[O-]` [ISOSORBIDE DINITRATE], the AC50 in assay [2] and in [3] was over 30 µM throughout.
In assay [1], `CCC(=O)O[C@@H]1CC(=O)O[C@H](C)C/C=C/C=C/[C@H](OC(C)=O)[C@H](C)C[C@H](CC=O)[C@H](O[C@@H]2O[C@H](C)[C@@H](O[C@H]3C[C@@](C)(OC(C)=O)[C@@H](OC(=O)CC)[C@H](C)O3)[C@H](N(C)C)[C@H]2O)[C@H]1OC` [MIOCAMYCIN] showed an AC50 of over 30 µM.
With `CCOC(=O)[C@H](CCc1ccccc1)N[C@@H](C)C(=O)N1Cc2cc(OC)c(OC)cc2C[C@H]1C(=O)O` [MOEXIPRIL], the half-maximal activity concentration (AC50) in [2] and in assay [3] was over 30 µM each time.
In the case of `CCN(CC)CCOC(=O)C(Cc1cccc2ccccc12)CC1CCCO1` (stereo not given) [NAFRONYL], the half-maximal activity concentration (AC50) in assay [2] is over 30 µM; in [3], 24.2 µM.
On the same counts, the results for `N[C@@H](Cc1c[nH]c2ccc(O)cc12)C(=O)O` [OXITRIPTAN] are over 30 µM and over 30 µM.
With `C1CNCCN1` [PIPERAZINE], the AC50 in [2] and in assay [3] was over 30 µM in each case.
As for `O=C(NC(Cc1cc(=O)[nH]c2ccccc12)C(=O)O)c1ccc(Cl)cc1` (stereo not given) [REBAMIPIDE], the AC50 in assay [2] and in [3] was over 30 µM throughout.
The compound `CO[C@H]1/C=C/O[C@@]2(C)Oc3c(C)c(O)c4c(O)c(cc(O)c4c3C2=O)NC(=O)/C(C)=C\C=C\[C@H](C)[C@H](O)[C@@H](C)[C@@H](O)[C@@H](C)[C@H](OC(C)=O)[C@@H]1C` [RIFAMYCIN] came in with a half-maximal activity concentration (AC50) in assay [2] of 11.6 µM.
For the compound `COc1cc([C@@H]2c3cc4c(cc3[C@@H](O[C@@H]3O[C@@H]5CO[C@@H](c6cccs6)O[C@H]5[C@H](O)[C@H]3O)[C@H]3COC(=O)[C@H]23)OCO4)cc(OC)c1O` [TENIPOSIDE], the AC50 in assay [2] and in assay [3] was over 30 µM in each case.
In assay [1], `c1ccc2[nH]c(-c3cscn3)nc2c1` [THIABENDAZOLE] registered a concentration at half-maximal activity (AC50) of over 30 µM.
In the case of `CCSc1ccc2c(c1)N(CCCN1CCN(C)CC1)c1ccccc1S2` [THIETHYLPERAZINE], the AC50 is over 30 µM in assay [4], 2.2 µM in assay [5], 29.1 µM in [2] and 18 µM in assay [7].
The compound `C[C@@H]1C[C@H]2[C@@H]3CCC4=CC(=O)C=C[C@]4(C)C3=CC[C@]2(C)[C@H]1C(=O)CN1CCN(c2cc(N3CCCC3)nc(N3CCCC3)n2)CC1` [TIRILAZAD] showed an AC50 in assay [1] of 6.61 µM.
